Assays:
calpain = experiment: Rabbit NMDA injury model, ocular fundus imaging; format: in vivo; details: for staining of nerve cells with HMRG in ocular fundus: 30, 45 and 60 minutes after probe into the eye (Compound 19 18.3 μM 19 μL; Compound 16 20 μM 19 μl or 38 μl)
Procedure: Black Dutch rabbits were each subjected to general anesthesia with a mixed liquid of ketamine and xylazine. N-Methyl-D-aspartate (NMDA) (12 mM, 50 μL) or PBS was administered into an eye of the rabbit. 9 Hours after that, the rabbit was anesthetized with a mixed liquid of ketamine and xylazine again, and Compound 19 (18.3 μM, 19 μL), Compound 16 (20 μM, 19 μl), or Compound 16 (20 μM, 38 μl) was administered into the eye. Images of an ocular fundus were taken with Mirante (a confocal scanning diode laser ophthalmoscope manufactured by Nidek Co., Ltd.) before the administration of each of the compounds and after the lapse of a predetermined time from the administration.

[1] = biological target: T1, calpain-1 from human erythrocytes (Homo sapiens, UniProt P07384); experiment: Fluorescence assay with calpain-1; format: biochemical; details: 10 μM probe, 17.4 U/mL calpain-1, 5 mM CaCl2, 37° C., excitation 475 nm, fluorescence 500-550 nm; for increase in fluorescence intensity 10 minutes after the addition of calpain-1: FIG. 5(b)
T1 construct: calpain-1 from human erythrocytes; purchased Merck Millipore 208713; host or cells: human erythrocytes (natural source)
T1 sequence (P07384 1-714): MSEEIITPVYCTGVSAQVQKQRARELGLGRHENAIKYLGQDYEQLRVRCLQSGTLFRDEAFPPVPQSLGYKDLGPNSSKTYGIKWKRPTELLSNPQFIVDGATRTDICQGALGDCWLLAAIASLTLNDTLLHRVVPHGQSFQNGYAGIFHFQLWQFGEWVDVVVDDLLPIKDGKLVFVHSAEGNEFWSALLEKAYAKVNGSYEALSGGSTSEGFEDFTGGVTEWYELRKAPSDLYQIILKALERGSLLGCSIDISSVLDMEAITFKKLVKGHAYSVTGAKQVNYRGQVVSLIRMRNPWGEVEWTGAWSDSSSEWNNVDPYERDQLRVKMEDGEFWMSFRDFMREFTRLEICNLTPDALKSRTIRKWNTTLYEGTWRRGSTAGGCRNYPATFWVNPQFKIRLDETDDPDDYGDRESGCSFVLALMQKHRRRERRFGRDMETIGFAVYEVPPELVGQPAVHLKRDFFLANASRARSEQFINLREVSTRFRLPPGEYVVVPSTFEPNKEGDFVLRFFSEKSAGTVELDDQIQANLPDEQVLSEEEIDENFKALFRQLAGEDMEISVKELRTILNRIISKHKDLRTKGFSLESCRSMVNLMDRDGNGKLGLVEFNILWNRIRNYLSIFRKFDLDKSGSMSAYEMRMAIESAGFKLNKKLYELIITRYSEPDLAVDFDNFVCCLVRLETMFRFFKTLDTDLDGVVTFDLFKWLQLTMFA
T1 sequence (P04632 1-268 partner): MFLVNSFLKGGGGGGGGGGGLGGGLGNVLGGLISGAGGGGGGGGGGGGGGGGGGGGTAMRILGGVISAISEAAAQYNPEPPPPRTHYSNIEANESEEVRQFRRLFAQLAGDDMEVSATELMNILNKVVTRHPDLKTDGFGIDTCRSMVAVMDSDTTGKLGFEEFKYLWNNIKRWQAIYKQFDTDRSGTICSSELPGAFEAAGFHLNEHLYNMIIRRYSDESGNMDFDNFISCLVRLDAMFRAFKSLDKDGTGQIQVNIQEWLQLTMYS
Procedure: The fluorescence assays of Compound 19 and Compound 16 with time were performed. Specifically, 17.4 U/mL of calpain-1 and 5 mM CaCl2 were added to a 50 mM TRIS buffer (pH: 7.4, 2 mM EGTA, 2 mM DTE) containing 10 μM of each of the synthesized fluorescent probes to perform an enzyme reaction at 37° C. Each of the compounds to which calpain-1 and CaCl2 were not added was similarly subjected as a negative control to the measurement.
The fluorescence assays of Compounds 16 to 36 were similarly performed. 50 Units per milliliter (Compounds 16 and 19 to 25) or 17.4 U/mL (Compounds 16 to 18 and 26 to 36) of calpain-1 and 5 mM CaCl2 were added to a 50 mM TRIS buffer (pH: 7.4, 2 mM EGTA, 2 mM DTE) containing 10 μM of each of the synthesized fluorescent probes to perform an enzyme reaction at 37° C.
Next, similar fluorescence assays of Compounds 37, 42, 45, 48, 51, 53, 55, 57, and 59 with calpain-1 were performed. Specifically, 17.4 U/mL of calpain-1 and 5 mM CaCl2 were added to a 50 mM TRIS buffer (pH: 7.4, 2 mM EGTA, 2 mM DTE) containing 10 μM of each of the synthesized fluorescent probes to perform an enzyme reaction at 37° C. Each of the compounds to which calpain-1 was not added was used as a control.
To evaluate an influence of a R^12-L-O— group on the reactivity of each of compounds having the same amino acids with calpain-1, the fluorescence assays of Compounds 37 to 66 with calpain-1 were performed in accordance with the above-mentioned method. Specifically, 17.4 U/mL of calpain-1 and 5 mM CaCl2 were added to a 50 mM TRIS buffer (pH: 7.4, 2 mM EGTA, 2 mM DTE) containing 10 μM of each of the synthesized fluorescent probes to perform an enzyme reaction at 37° C., followed by the measurement of an increase in fluorescence intensity of each of the compounds 10 minutes after the addition of calpain-1.

SH-SY5Y cells = experiment: Live cell imaging of calpain activity in SH-SY5Y cells; format: cell-based; details: 5 μM probe, 10 minutes incubation, confocal microscope; FIG. 12
Procedure: Whether or not the improvement in enzymatic reactivity between the compound of the present invention and a calpain confirmed by the above-mentioned experiment remained the same even in a cell was verified. Calpain activity imaging in SH-SY5Y cells was performed on each of Compounds 16 and 19. Specifically, the SH-SY5Y cells (American Type Culture Collection, VA, USA) were cultured in a mixed medium of Dulbecco's modified eagle medium and Ham's F-12 medium (DMEM/F-12; Thermo Fisher Scientific, Inc.) (containing 10% fetal bovine serum (FBS; Thermo Fisher Scientific, Inc., MA, USA) and 100 U/mL penicillin-100 μg/mL streptomycin (PS; Thermo Fisher Scientific, Inc.)) under the conditions of 37° C. and 5% CO2-95% air. 6×10^4 to 8×10^4 Cells/well of the cells were seeded in a multiwell plate (μ-Plate 96 Well; ibidi, Grafelfing, Germany) coated with poly-D-lysine (Thermo Fisher Scientific, Inc.) and laminin (BD Biosciences, CA, USA), and were preincubated in a culture solution. Immediately after the removal of the culture solution in the wells, 200 μL of an assay solution (a culture solution containing a 5 μM probe) was added thereto, and the cells were incubated under the conditions of 37° C. and 5% CO2-95% air. 10 Minutes after that, a bright field image and a fluorescence image were taken with a confocal microscope (LSM 710, Carl Zeiss AG, Oberkochen, Germany).
Calpain activity imaging in SH-SY5Y cells was performed on each of Compounds 20 to 23, Compound 38, and Compound 56 in the same manner as in Example 9. In the case of each of Compounds 20 to 23 and Compound 38, a bright field image and a fluorescence image were taken after 30 minutes of incubation of the cells, and in the case of Compound 56, such images were taken after 20 minutes of incubation thereof.

| Structure (SMILES) | number of HMRG-positive cells in PBS rabbits compared to NMDA rabbits (calpain; Compound 19 (19 μL) and Compound 16 (38 μl), FIG. 23) | staining of nerve cells with HMRG in ocular fundus (calpain; rabbits administered NMDA (12 mM, 50 μL)) | staining of nerve cells with HMRG in ocular fundus (calpain; rabbits administered PBS) | change in fluorescence intensity with time by calpain-1 ([1]; FIG. 4) | calpain activity imaging in SH-SY5Y cells (SH-SY5Y cells) | increase in fluorescence intensity 10 minutes after the addition of calpain-1 [1] |
| --- | --- | --- | --- | --- | --- | --- |
| CSCC[C@H](NC(=O)[C@H](CC(C)C)NC(C)=O)C(=O)Nc1ccc2c(c1)Oc1cc(N)ccc1C21OCc2ccccc21 (stereo partly shown) [Compound 16, reference compound] | significantly reduced | many nerve cells were clearly stained with HMRG | substantially no staining of the nerve cells with HMRG | functioned as a fluorescent probe for calpain-1 | enabled the observation of calpain activity in the SH-SY5Y cells |  |
| CCC(=O)N[C@@H](CC(C)C)C(=O)N[C@@H](CCSC)C(=O)Nc1ccc2c(c1)Oc1cc(N)ccc1C21OCc2ccccc21 (stereo partly shown) [Compound 17] |  |  |  |  |  | reduced in fluorescence intensity as compared to Compound 16 |
| CCCC(=O)N[C@@H](CC(C)C)C(=O)N[C@@H](CCSC)C(=O)Nc1ccc2c(c1)Oc1cc(N)ccc1C21OCc2ccccc21 (stereo partly shown) [Compound 18] |  |  |  |  |  | reduced in fluorescence intensity as compared to Compound 16 |

Source: patent US20240279710A1, “FLUORESCENT PROBES” (TOHOKU TECHNO ARCH CO., LTD., priority 2021, published 2024)
